Source: US7629318B2, “Immunosuppressant compounds, methods and uses related thereto” (priority 2002, dated 2009)
Where “and” joins values, the source holds several entries; their conditions need not be identical. Equal values may be shown once. Read-outs that look alike come from different tables or passages of the source. Numbered stars: 1 amine (or outer) side, 2 acyl side, 3 side chain; on linkers, the order of the positions; unused ones are H or OH. Square brackets hold non-standard residues; d marks the D form. Peptide text beside a SMILES is read from it. * marks the point of attachment. ξ: configuration not given here. Gly(1-amidinopiperidin-4-yl) = N=C(N)N1CCC([C@H](N)C(=O)O)CC1; X1 = CC(C)c1oc([C@H](CO)N[*:1])nc1C(=O)[*:2]; Pro(3R-Ph) = O=C(O)[C@H]1NCC[C@@H]1c1ccccc1; Met(O) = CS(=O)CC[C@H](N)C(=O)O; Tic = O=C(O)[C@@H]1Cc2ccccc2CN1; Cha = N[C@@H](CC1CCCCC1)C(=O)O; NHPhenethyl = c1ccc(CCN*)cc1; ξDisc = O=C(O)C1NCc2ccccc21; Nle = CCCC[C@H](N)C(=O)O; NHBn = c1ccc(CN*)cc1; X3 = OCCOCCN*

Experiments:
[1] = target: T1, Priess (DR4Dw4: DRA1*0101 DRB1*0401) cells (Homo sapiens, UniProt P01903+P01911, A100K/A169T/F76Y/I96L/K127E/L162R/M171V/N62H/P40V/Q125Y/R42H/S133A/S149N/S66Y/V115G/V209L/W38E); assay: Competitive binding to MHC II proteins expressed on Priess cells; format: cell-based
T1 construct: MHC II Proteins Expressed on PRIESS and LG2 Cells; endogenous in cells; host or cells: Priess cells
Method in brief: (§1)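 LG2 or Priess cells incubated 4 h at 37° C, 6% CO2 in 1% FCS with 10-fold compound dilutions (series 16 nM-1615 μM) and biotinylated-detectable indicator peptide (16 μM solution added). Lysates captured 2 h at 4° C; bound peptide detected via europium-streptavidin time-resolved fluorescence (ex 340, em 613 nm).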

[2] = target: DR4Dw14 (DRA1*0101 DRB1*0404) (Homo sapiens, UniProt P01903+P01911, A100R/A169T/F76Y/I96L/K127E/L162R/M171V/N62H/P40V/Q125Y/R42H/S133A/S149N/S66Y/V209L/W38E); assay: Competitive binding to MHC-II protein DR4Dw14; conditions: 0404; read-out: Protein binding IC50 (nM) 0404
Method in brief: (§2)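 Each MHC-II allele incubated with compound 16 hours at room temperature in duplicate; controls lacked compound, or both compound and MHC-II. Complexes captured 2 h at 4 °C, bound biotinylated peptide detected via europium-streptavidin and DELFIA enhancement, time-resolved fluorescence read at ex 340/em 613 (615) nm.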

[3] = target: DR4Dw4 (DRA1*0101 DRB1*0401) (Homo sapiens, UniProt P01903+P01911, A100K/A169T/F76Y/I96L/K127E/L162R/M171V/N62H/P40V/Q125Y/R42H/S133A/S149N/S66Y/V115G/V209L/W38E); assay: Competitive binding to MHC-II protein DR4Dw4
Method in brief: as §2

[4] = target: Cathepsin B1 (EC 3.4.22.1 from bovine spleen) (Bos taurus, UniProt P07688); conditions: Cathepsin B, 4 h
[5] = Stability of compounds in human blood plasma; format: in vitro ADME
Method in brief: (§3)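 Compounds at 5 μM final in rat, mouse or human plasma, incubated at 37 °C and sampled at 0, 6 and 24 h. Proteins precipitated with acetonitrile and the supernatant dried and reconstituted in 50% acetonitrile/0.1% TFA. PBS controls run for unstable compounds.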

[6] = target: T2, LG2 (DR1: DRA1*0101 DRB1*0101) cells (Homo sapiens, UniProt P01903+P01911, A100R/D57E/F55L/F60I/F76Y/I96L/L162R/M171V/P40L/Q125E/R42F/V115G/Y59C); assay: Competitive binding to MHC II proteins expressed on LG2 cells; format: cell-based; conditions: for IC50: Cell binding IC50 (uM) LG2 (0101), LG2 (0101)
T2 construct: MHC II Proteins Expressed on PRIESS and LG2 Cells; endogenous in cells; host or cells: LG2 cells
Method in brief: as §1

[7] = Stability of compounds in rat blood plasma; format: in vitro ADME
Method in brief: as §3

Compound	IC50 [1] [µM]	IC50 [2] [nM]	IC50 [3] [µM]	Stability (Arbitrary units) Cath B 4 h [4]	Stability (Arbitrary units) Human 6 h [5] [Arbitrary units]	Stability (Arbitrary units) Human 24 h [5] [Arbitrary units]	IC50 [6]	Stability (Arbitrary units) Rat 6 h [7] [Arbitrary units]	Stability (Arbitrary units) Rat 24 h ([7]; rat plasma, 24 h) [Arbitrary units]	binding to MHC class II protein expressed on the surface of LG2 cells ([6]; compared to the Arg-containing equivalent)	Stability (Arbitrary units) Rat 24 h [7] [Arbitrary units]	stability (arbitrary units) in rat plasma ([7]; after 24 hours, compared to the Arg-containing equivalent)
CSCC[C@H](NC(=O)C1c2ccccc2CN1C(=O)[C@@H](NC(=O)[C@H](CC1CCCCC1)NC(C)=O)C1CCN(C(=N)N)CC1)C(=O)N1CC[C@H](c2ccccc2)[C@H]1C(=O)N[C@@H](CO)c1nc(C(=O)N(C)C)c(C(C)C)o1 (stereo partly drawn) [Compound P41-1, Ac-Cha-Gpg-Disc-Met-βPhPro-[S(oxaz)L]-NMe2] (Ac-[Cha][Gly(1-amidinopiperidin-4-yl)][ξDisc]M[Pro(3R-Ph)][X1]-NMe2)	3.7	110	0.2	104 Arbitrary units	59	115	3.8 µM	91	103			
CC(=O)N[C@@H](CC1CCCCC1)C(=O)N[C@H](C(=O)N1Cc2ccccc2C[C@H]1C(=O)N[C@@H](CC[S+](C)[O-])C(=O)N1CC[C@H](c2ccccc2)[C@H]1C(=O)N[C@@H](CO)c1nc(C(=O)N(C)C)c(C(C)C)o1)C1CCN(C(=N)N)CC1 (stereo partly drawn) [Compound P47, Ac-Cha-Gpg-Tic-Met(O)-βPhPro-[S(oxaz)L]-NMe2] (Ac-[Cha][Gly(1-amidinopiperidin-4-yl)][Tic][Met(O)][Pro(3R-Ph)][X1]-NMe2)	6.9	580	0.18	100 Arbitrary units	126	140	4.6 µM	116		Improved binding	103	
CCCC[C@H](NC(=O)[C@@H]1Cc2ccccc2CN1C(=O)[C@@H](NC(=O)[C@H](CC1CCCCC1)NC(C)=O)C1CCN(C(=N)N)CC1)C(=O)N1CC[C@H](c2ccccc2)[C@H]1C(=O)N[C@@H](CO)c1nc(C(=O)N(C)C)c(C(C)C)o1 [Compound P53, Ac-Cha-Gpg-Tic-Nle-βPhPro-[S(oxaz)L]-NMe2] (Ac-[Cha][Gly(1-amidinopiperidin-4-yl)][Tic][Nle][Pro(3R-Ph)][X1]-NMe2)	3	180	0.41	97 Arbitrary units	110	122	3.5 µM	114			108	
CSCC[C@H](NC(=O)[C@@H]1Cc2ccccc2CN1C(=O)[C@@H](NC(=O)[C@H](CC1CCCCC1)NC(C)=O)C1CCN(C(=N)N)CC1)C(=O)N1CC[C@H](c2ccccc2)[C@H]1C(=O)N[C@@H](CO)c1nc(C(=O)N(C)C)c(C(C)C)o1 [Compound P60, Ac-Cha-Gpg-Tic-Met-βPhPro-[S(oxaz)L]-NMe2] (Ac-[Cha][Gly(1-amidinopiperidin-4-yl)][Tic]M[Pro(3R-Ph)][X1]-NMe2)	2.1	190	0.23	88 Arbitrary units and 98 Arbitrary units		120	1.5 µM	134			124	
CSCC[C@H](NC(=O)C1c2ccccc2CN1C(=O)[C@@H](NC(=O)[C@H](CC1CCCCC1)NC(C)=O)C1CCN(C(=N)N)CC1)C(N)=O (stereo partly drawn) [Compound P66-1, Ac-Cha-Gpg-Disc-Met-NH2] (Ac-[Cha][Gly(1-amidinopiperidin-4-yl)][ξDisc]M-NH2)	7.8	590	0.29	102 Arbitrary units	103	87	6 µM	138			81	
CCCC[C@H](NC(=O)[C@@H]1Cc2ccccc2CN1C(=O)[C@@H](NC(=O)[C@H](CC1CCCCC1)NC(C)=O)C1CCN(C(=N)N)CC1)C(=O)NCc1ccccc1 [Compound P68, Ac-Cha-Gpg-Tic-Nle-N(H)Bn] (Ac-[Cha][Gly(1-amidinopiperidin-4-yl)][Tic][Nle]-NHBn)	12	2000	2.1	52 Arbitrary units	85	39	7.2 µM	7			0	
CCCC[C@H](NC(=O)[C@@H]1Cc2ccccc2CN1C(=O)[C@@H](NC(=O)[C@H](CC1CCCCC1)NC(C)=O)C1CCN(C(=N)N)CC1)C(=O)NCCc1ccccc1 [Compound P69, Ac-Cha-Gpg-Tic-Nle-N(H)CH2CH2Ph] (Ac-[Cha][Gly(1-amidinopiperidin-4-yl)][Tic][Nle]-NHPhenethyl)	11	4500	3.6	92 Arbitrary units	105	93	6.2 µM and 8.2 µM	41			42	improved stability
CCCC[C@H](NC(=O)[C@@H]1Cc2ccccc2CN1C(=O)[C@@H](NC(=O)[C@H](CC1CCCCC1)NC(C)=O)C1CCN(C(=N)N)CC1)C(=O)NCCOCCO [Compound P70, Ac-Cha-Gpg-Tic-Nle-N(H)CH2CH2OCH2CH2OH] (Ac-[Cha][Gly(1-amidinopiperidin-4-yl)][Tic][Nle]-X3)	8.6	290	0.44	110 Arbitrary units	116	90	5.7 µM	83			65	
